US20220233602A1, “GENERATION OF NEURAL STEM CELL LINES DERIVED FROM HUMAN PLURIPOTENT STEM CELLS” (Novo Nordisk A/S, priority 2019, published 2022)
Entries after “also recorded” stand apart in the source; their conditions may differ. Read-outs that look alike come from different tables or passages of the source.

Key:
hESC [1] = test: Differentiation protocol for NECS and rosette formation (brightfield, NES/ZO1 staining); type: cell-based, human; conditions: for neural rosette formation, RepSox compared to GW788388: hESCs treated, NES and ZO1 staining (FIG. 6); for morphology of NECS: suspension culture, brightfield (FIG. 3)
Source text: As an example, one optimal condition was:

hESC [2] = conditions: for Cell death: 3 = low number of pyknotic nuclei; for Rosette: 3 = high number of neural rosettes; for Thickness Epithelium: thicker columnar epithelium of the neural rosette; for Final Score: sum of the parameter scores; for No Side Population (OTX2 Neg): score by OTX2 staining: 3 = no detection of OTX2 negative cells, evaluated only in conditions without NES negative cells
Method: The experimental protocol used for neural induction of hESC and subsequent generation and NSC line establishment can roughly be divided in three main stages—Neuroectoderm induction and NECS formation; NECS plating and rosette formation and finally NSC line establishment by replating the cells in expansion media.
50-90% confluent hESC were washed with PBS^−/− and dissociated from monolayer culture with TrypLE™ Select (Gibco) at 37° C. for approximately 5 minutes to obtain single-cell suspension. The single-cell suspension of hESCs was resuspended in NutriStem® supplemented with 10 μM ROCKi (Y-27632) and as standard 1 mL with cell densities of 1×10^5-2×10^5 cells per mL was seeded into one single well (around 3.5 cm^2) of a 12-well plates (Day 0).
At day 1, around 50% of the medium was exchanged with NECS media consisting of DMEM/F12 GlutaMAX™ supplement (Gibco™) supplemented with 20 U/mL Penicillin-streptomycin, 1% N-2 Supplement (Gibco™) and GW788388 or RepSox in different concentrations, without ROCKi. To initiate rotary NECS formation, plates were from day 1-6 placed on a Multi Bio 3D Mini-shaker (BioSan) at different speeds, timeslots, levels and angle. As an example, one optimal condition was:
The NECS media was exchanged everyday by removing half of the media and adding fresh medium. […] After 6 days in dynamic conditions all NECS were collected and plated in 2D on 48-well plates, laminin coated. For coating, 1:50 natural mouse laminin (L2020-1MG, Sigma-Aldrich, 1 mg/ml) was performing fine, but the type of laminin can be also extended to LN-521 or LN-511 (BioLamina). From day 7 to day 10, now in attachment in 2D, all media was removed, and cells were re-feed with fresh NECS media. An example of the different steps can be shown in FIG. 4, with images after Day 3 (dynamic suspension), Day 8 (neural rosettes in 2D) and Day 10 (before single cell dissociation).
The parameters measured were cell death, rosette formation, a monolayer formation in 2D, thickness of the epithelium formed in the rosette structure, and the absence of side population (all cells being NES and OTX2 positive), i.e. purity of the cell population
Cell death: Monitored by DAPI (4′,6-diamidino-2-phenylindole) staining. Pyknosis, or karyopyknosis, is the irreversible condensation of chromatin in the nucleus of a cell undergoing necrosis or apoptosis. After visual inspection under the fluorescent microscope, a score of 0 represent high number of pyknotic nuclei and a score of 3 a low number of pyknotic nuclei.
Rosette numbers: Monitored by DAPI, ZO1 and NES stainings. After visual inspection under the fluorescent microscope, a score of 0 represent low number of neural rosettes nuclei and a score of 3 a high number of rosettes.
Monolayer formation: Monitored by brightfield and DAPI staining. After visual inspection under the microscope, a score of 3 represent a flat monolayer of cells after NECS attachment.
Thickness of the rosette columnar epithelium: Monitored by DAPI staining. After visual inspection under the fluorescent microscope, a score of 3 represent a broader, thicker columnar epithelium of the neural rosette.
Side population: Monitored by specific stainings of NES and OTX2. After visual inspection under the fluorescent microscope, a score of […] represents no detection of NES negative cells. Only in conditions without NES negative cells, the OTX2 population was evaluated. In those cases, a score of 3 represents no detection of OTX2 negative cells.

[3] = Low concentration (RepSox 0.25 μM, GW788388 0.1 ng/ml, SB525334 0.1 μM), score by DAPI: 0 = high number
[4] = Low concentration (RepSox 0.25 μM, GW788388 0.1 ng/ml, SB525334 0.1 μM), score: 0 = low number
[5] = Low concentration (RepSox 0.25 μM, GW788388 0.1 ng/ml, SB525334 0.1 μM), score: 3 = broader
[6] = Low concentration (RepSox 0.25 μM, GW788388 0.1 ng/ml, SB525334 0.1 μM), score: 3 = flat monolayer of cells after NECS attachment
[7] = Low concentration (RepSox 0.25 μM, GW788388 0.1 ng/ml, SB525334 0.1 μM), score: 6 = no detection of NES negative cells
[8] = Low concentration (RepSox 0.25 μM, GW788388 0.1 ng/ml, SB525334 0.1 μM)
[9] = score by DAPI staining: 0 = high number, RepSox 25 μM, LY2157299 10 μM, TEW-7197 10 μM, GW788388 10 ng/ml, SB525334 10 μM, SB431542 10 μM, SB431542+LDN 10 μM+10 μM, LY2109761 2 μM
[10] = score by DAPI, ZO1, NES staining: 0 = low number, RepSox 25 μM, LY2157299 10 μM, TEW-7197 10 μM, GW788388 10 ng/ml, SB525334 10 μM, SB431542 10 μM, SB431542+LDN 10 μM+10 μM, LY2109761 2 μM
[11] = score by DAPI: 3 = broader, RepSox 25 μM, LY2157299 10 μM, TEW-7197 10 μM, GW788388 10 ng/ml, SB525334 10 μM, SB431542 10 μM, SB431542+LDN 10 μM+10 μM, LY2109761 2 μM
[12] = score by NES staining: 6 = no detection of NES negative cells, RepSox 25 μM, LY2157299 10 μM, TEW-7197 10 μM, GW788388 10 ng/ml, SB525334 10 μM, SB431542 10 μM, SB431542+LDN 10 μM+10 μM, LY2109761 2 μM
[13] = score by brightfield and DAPI: 3 = flat monolayer of cells after NECS attachment, RepSox 25 μM, LY2157299 10 μM, TEW-7197 10 μM, GW788388 10 ng/ml, SB525334 10 μM, SB431542 10 μM, SB431542+LDN 10 μM+10 μM, LY2109761 2 μM
[14] = RepSox 25 μM, LY2157299 10 μM, TEW-7197 10 μM, GW788388 10 ng/ml, SB525334 10 μM, SB431542 10 μM, SB431542+LDN 10 μM+10 μM, LY2109761 2 μM
[15] = RepSox 25 μM, LY2157299 10 μM, TEW-7197 10 μM, SB431542+LDN 10 μM+10 μM, LY2109761 2 μM

Compound	neural rosette formation, RepSox compared to GW788388 (hESC [1])	morphology of NECS (hESC [1])	Cell death (hESC [2]; [3])	Rosette (hESC [2]; [4])	Thickness Epithelium (hESC [2]; [5])	Monolayer formation (hESC [2]; [6])	No Side Population (NES Neg) (hESC [2]; [7])	Final Score (hESC [2]; [8])	Cell death (hESC [2]; [9])	Rosette (hESC [2]; [10])	Thickness Epithelium (hESC [2]; [11])	No Side Population (NES Neg) (hESC [2]; [12])	Monolayer formation (hESC [2]; [13])	Final Score (hESC [2]; [14])	No Side Population (OTX2 Neg) (hESC [2]; [15])	homogeneous population of neural rosettes with NES positive cells and ZO1 in the center of each rosette (hESC [1]; RepSox 25 and 50 μM (FIGS. 7 and 8))	homogeneous population of neural rosettes with NES positive cells and ZO1 in the center of each rosette (hESC [1]; lower concentrations of RepSox (0.25 μM, 2.5 μM; FIGS. 7 and 8))
O=C(NC1CCOCC1)c1ccc(-c2cc(-c3cn[nH]c3-c3ccccn3)ccn2)cc1 [GW788388, N-(oxan-4-yl)-4-[4-(5-pyridin-2-yl-1H-pyrazol-4-yl)pyridin-2-yl]benzamide]	only few rosettes are observed	darker and denser core	2	2	2	3	0	9	3	3	3	0	3	12	–	–	–
c1ccc(-c2nn3c(c2-c2ccnc4cc(OCCN5CCOCC5)ccc24)CCC3)nc1 [LY2109761]	–	–	–	–	–	–	–	–	0	0	0	6	0	9	3	–	–
Cc1cccc(-c2nn3c(c2-c2ccnc4ccc(C(N)=O)cc24)CCC3)n1 [LY2157299, 4-[2-(6-methylpyridin-2-yl)-5,6-dihydro-4H-pyrrolo[1,2-b]pyrazol-3-yl]quinoline-6-carboxamide]	–	–	–	–	–	–	–	–	3	3	3	6	2	17	0	–	–
Cc1cccc(-c2n[nH]cc2-c2ccc3ncccc3n2)n1 [RepSox, 2-(3-(6-Methylpyridine-2-yl)-1H-pyrazol-4-yl)-1,5-naphthyridine]	superior; also recorded: multiple neural rosettes are observed	more transparent NECS; also recorded: bright cavities	–	3	3	3	0	12	–	3	2	6	3	20	3	optimal to obtain an homogeneous population of neural rosettes	less clear effect
NC(=O)c1ccc(-c2nc(-c3ccc4c(c3)OCO4)c(-c3ccccn3)[nH]2)cc1 [SB431542, 4-[4-(1,3-benzodioxol-5-yl)-5-(2-pyridinyl)-1H-imidazol-2-yl]benzamide]	–	–	–	–	–	–	–	–	–	3	2	0	2	10	–	–	–
Cc1cccc(-c2[nH]c(C(C)(C)C)nc2-c2ccc3nccnc3c2)n1 [SB525334]	–	–	2	3	3	2	0	10	0	3	2	4	2	11	–	–	–
Cc1cccc(-c2[nH]c(CNc3ccccc3F)nc2-c2ccc3ncnn3c2)n1 [TEW-7197, 2-fluoro-N[[5-(6-methylpyridin-2-yl)-4-([1,2,4]triazolo[1,5-a]pyridin-6-yl)-1H-imidazol-2-yl]methyl]aniline]	–	–	–	–	–	–	–	–	–	2	2	6	2	15	3	–	–
